According to PubChem BioAssay (NCI):
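1) Cells in 96-well plates. 2) Compound, 48 h, 5 concentrations. 3) Linear interpolation between surrounding doses. 4) Unreached endpoint = highest concentration. GI50: concentration for 50% inhibition of growth. TGI is the concentration that stops growth completely.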

Tests used:
Assay in all cases: NCI anticancer screen, dose series, 48 h
BT-549 breast = tested on: BT-549 breast
M14 melanoma = tested on: M14 melanoma
SK-MEL-2 melanoma = tested on: SK-MEL-2 melanoma
OVCAR-4 ovarian = tested on: OVCAR-4 ovarian
IGROV1 ovarian = tested on: IGROV1 ovarian
SNB-19 CNS = tested on: SNB-19 CNS
SK-MEL-28 melanoma = tested on: SK-MEL-28 melanoma
HL-60(TB) leukemia = tested on: HL-60(TB) leukemia
HS 578T breast = tested on: HS 578T breast
T-47D breast = tested on: T-47D breast

Row | SMILES | GI50 (BT-549 breast) | TGI (BT-549 breast) | GI50 (M14 melanoma) | TGI (M14 melanoma) | GI50 (SK-MEL-2 melanoma) | TGI (SK-MEL-2 melanoma) | GI50 (OVCAR-4 ovarian) | TGI (OVCAR-4 ovarian) | GI50 (IGROV1 ovarian) | TGI (IGROV1 ovarian) | GI50 (SNB-19 CNS) | TGI (SNB-19 CNS) | GI50 (SK-MEL-28 melanoma) | TGI (SK-MEL-28 melanoma) | GI50 (HL-60(TB) leukemia) | TGI (HL-60(TB) leukemia) | GI50 (HS 578T breast) | TGI (HS 578T breast) | GI50 (T-47D breast) | TGI (T-47D breast)
1 | Oc1ccc(-c2nc3ccccc3s2)cc1CN(Cc1ccccn1)Cc1ccccn1 | 1830 nM | 15.6 µM | 548 nM | 4.6 µM | 2500 nM | 9.69 µM | 787 nM | 12.8 µM | 1960 nM | 15.8 µM | 1.51 µM | 20.8 µM | 2350 nM | 15.3 µM | 2140 nM | 13.3 µM | 4.66 µM | 39.4 µM | 3.79 µM | 89.9 µM
2 | CCC(=C/[C@H](C)C/C=C/C(C)=C/[C@@H](C)C(=O)[C@@H](C)[C@H](O)[C@@H](C)CC)/C=C/[C@@H]1OC(=O)C=C[C@H]1C | < 10 nM | 1.75 µM | < 10 nM | 0.0103 µM | < 10 nM | < 0.01 µM | < 10 nM | 1.5 µM | < 10 nM |  | < 0.01 µM |  | < 10 nM | 1.58 µM | < 10 nM | < 0.01 µM | < 0.01 µM | 1.95 µM | < 0.01 µM | 2.13 µM
3 | COc1ccc2c(=O)cc(C(Cl)(Cl)Cl)oc2c1 | 336 nM | 10.6 µM |  |  | 488 nM | 26.4 µM | 423 nM | 30.7 µM | 633 nM | 21.3 µM | 3.77 µM | 48.1 µM | 632 nM | 23.2 µM | 269 nM | 0.836 µM | 0.979 µM | 48.6 µM | 12.2 µM | 55.3 µM
4 | CCN(CC)CCCNCc1cc(-c2ccccc2)nc2ccccc12 | 3770 nM | 15.9 µM | 4630 nM | 14.4 µM | 10200 nM | 22.9 µM | 6910 nM | > 100 µM | 23100 nM | > 100 µM | 14.2 µM | > 100 µM | 10200 nM | 22.4 µM | 1620 nM | 14.9 µM | 16.8 µM | > 100 µM | 10.2 µM | 59.6 µM
5 | CC(=O)c1c(C)[nH]c(-c2nc3ccc(N4CCN(C)CC4)cc3[nH]2)c1-c1ccc(N(C)C)cc1 | 3050 nM | 18.6 µM | 537 nM | 13.4 µM | 2580 nM | 17.6 µM | 1170 nM | 33.6 µM | 936 nM | 12.3 µM | 1.89 µM | > 100 µM | 2470 nM | 18.7 µM | 118 nM | 0.596 µM | 0.396 µM | 7.23 µM | 0.434 µM | 16.6 µM
6 | C[As](C)SCC(COC(=O)C(Cl)c1ccccc1)OC(=O)C(Cl)c1ccccc1 (configuration not stated) | 2680 nM | 14.3 µM | 614 nM | 15.7 µM |  |  | 4380 nM | 18 µM | 1930 nM | > 42.6 µM | 14.5 µM | 50 µM | 10600 nM | 28.1 µM | 418 nM |  | 3.4 µM | 46.5 µM | 17.1 µM | > 45.8 µM
7 | CN(C)CCNC(=O)c1cccc(N(C)C(=O)c2ccccc2)c1[N+](=O)[O-] |  | > 100 µM |  | > 100 µM |  | > 100 µM |  |  |  | > 100 µM |  | > 100 µM |  | > 100 µM |  | > 100 µM |  | > 100 µM |  | > 100 µM
